# Measurements from ChEMBL document CHEMBL1134079, “Synthesis and pharmacological evaluation of 2,5-cycloamino-5H-[1]benzopyrano[4,3-d]pyrimidines endowed with in vitro antiplatelet activity” (Bioorg Med Chem Lett, 2001).
# Tests used:
# Type in all cases: functional
# [1] = organism: Cavia porcellus; assay: Evaluated for in vitro antiplatelet activity against guinea pig platelet rich plasma aggregated by arachidonic acid (AA)
# [2] = organism: Cavia porcellus; assay: In vitro antiplatelet activity against guinea pig platelet rich plasma aggregated by collagen
# [3] = organism: Cavia porcellus; assay: Evaluated for in vitro antiplatelet activity against guinea pig platelet rich plasma aggregated by […] (ADP)
SMILES,IC50 ([1]; read-out: IC50),IC50 ([2]; read-out: IC50),IC50 [3],IC50 [1],IC50 [2]
c1ccc2c(c1)OC(N1CCOCC1)c1cnc(N3CCOCC3)nc1-2 (stereo not given),95 µM,60 µM,–,–,–
c1ccc2c(c1)OC(N1CCCCC1)c1cnc(N3CCOCC3)nc1-2 (stereo not given),–,200 µM,–,–,–
c1ccc2c(c1)OC(N1CCCC1)c1cnc(N3CCOCC3)nc1-2 (stereo not given),430 µM,80 µM,250 µM,–,–
Nc1ncc2c(n1)-c1ccccc1OC2N1CCCC1 (stereo not given),400 µM,–,750 µM,–,–
c1ccc2c(c1)OC(N1CCCCC1)c1cnc(N3CCCC3)nc1-2 (stereo not given),90 µM,–,–,–,–
CSc1ncc2c(n1)-c1ccccc1OC2N1CCCC1 (stereo not given),85 µM,–,180 µM,–,–
CC(=O)Oc1ccccc1C(=O)O [ASPIRIN],–,–,–,61 µM,48 µM

# Further lines, results first:
IC50 ([1]; read-out: IC50),IC50 ([2]; read-out: IC50),IC50 [3],IC50 [1],IC50 [2],SMILES
75 µM,50 µM,–,–,–,c1ccc2c(c1)OC(N1CCOCC1)c1cnc(N3CCCC3)nc1-2 (stereo not given)
25 µM,60 µM,–,–,–,c1ccc2c(c1)OC(N1CCOCC1)c1cnc(N3CCCCC3)nc1-2 (stereo not given)
80 µM,170 µM,200 µM,–,–,c1ccc2c(c1)OC(N1CCCC1)c1cnc(N3CCCC3)nc1-2 (stereo not given)
